Experimental data as given in article PMC10281575, “PfCRT mutations conferring piperaquine resistance in falciparum malaria shape the kinetics of quinoline drug binding and transport” (PLOS Pathogens, 2023).
“And” between values parts separate entries of the source, which are not always exact repeats. Identical values can stand only once.

Target: T1, PfCRT^Dd2_G353V (Plasmodium falciparum, UniProt Q8IBZ9, A220S/G353V/I356T/K76T/M74I/N326S/N75E/Q271E/R371I)
T1 construct: expressed in transfected cells; host or cells: Xenopus laevis oocytes injected with in vitro transcribed RNA (pSP64T)
T1 sequence (Q8IBZ9 1-424 M74I/N75E/K76T/A220S/Q271E/N326S/G353V/I356T/R371I): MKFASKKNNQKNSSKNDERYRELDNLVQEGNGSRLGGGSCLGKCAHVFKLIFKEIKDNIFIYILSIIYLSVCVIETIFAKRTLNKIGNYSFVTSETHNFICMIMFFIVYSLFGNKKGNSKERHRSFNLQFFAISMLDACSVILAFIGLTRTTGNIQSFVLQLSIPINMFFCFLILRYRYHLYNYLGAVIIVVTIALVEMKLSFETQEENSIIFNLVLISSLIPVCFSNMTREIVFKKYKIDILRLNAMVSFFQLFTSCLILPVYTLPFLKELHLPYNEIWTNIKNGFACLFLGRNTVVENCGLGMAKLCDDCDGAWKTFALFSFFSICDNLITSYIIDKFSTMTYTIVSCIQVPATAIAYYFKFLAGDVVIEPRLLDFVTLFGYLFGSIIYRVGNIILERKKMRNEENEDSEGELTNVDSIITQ
Assay: Radiolabeled drug uptake in X. laevis oocytes expressing PfCRT^Dd2_G353V
Type: cell-based
From the text: A codon-optimized coding sequence of the Dd2 isoform of PfCRT (PfCRT^Dd2) was subcloned into the pSP64T expression vector [21]. To generate the necessary mutations to introduce the amino acid substitutions H97Y, F145I, M343L or G353V into the pfcrt sequence, the overlap extension method was used. A region from the 5’-untranslated Xenopus β-globin sequence to the respective 3’ region, containing the full length pfcrt coding sequence, was amplified using the following primer pairs: for the H97Y mutation, numbers 1/4 and 2/3; for the F145I mutation, numbers 1/6 and 2/5; for the M343L mutation, numbers 1/8 and 2/7; and for the G353V mutation, numbers 1/10 and 2/9 (for primers, see S2 Table). Both PCR products were used as template for amplification of the final product using primers number 1/2. The resulting fragment was cloned into the pSP64T expression vector, and the presence of the desired mutation was confirmed by sequencing.
Adult female X. laevis frogs (purchased from NASCO) were anesthetized by submersion in a solution of 0.3% (w/v) 3-amino benzoate methanesulfonate for 15 min. Sections of the ovary were surgically removed and placed in Ca^2+-free ND96 buffer supplemented with 0.1% collagenase D (w/v; Roche), 0.5% BSA (w/v) and 9 mM Na2HPO4 at 18°C for 14–16 h while gently shaking. The oocytes were then washed several times with ND96 buffer (5 mM HEPES, pH 7.5, 96 mM NaCl, 2 mM KCl, 1.8 mM CaCl2, 1 mM MgCl2), supplemented with […] gentamycin. Healthy-looking stage V-VI oocytes were manually selected and randomly grouped for injection. A codon-optimized coding sequence of PfCRT was subcloned into the pSP64T expression vector and subsequently linearized using the restriction endonuclease BamHI or SalI (New England Biolabs GmbH). RNA for injection was transcribed in vitro using the mMESSAGE mMACHINE SP6 Transcription kit (Ambion), diluted with nuclease-free water to a final concentration of 0.6 μg/μL and stored at -80°C. RNA was injected using precision-bore glass capillary tubes (3.5-inch glass capillaries; Drummond Scientific Co.), which were pulled on a vertical puller (P-87 Flaming/Brown micropipette puller, Sutter Instrument Co.) and graduated. The micropipettes were connected to a microinjector (Nanoject II Auto-Nanoliter Injector, Drummond Scientific Co.). Injection was conducted under stereomicroscopic control. 50 nL of nuclease-free water alone (control oocytes) or 50 nL of nuclease-free water containing 30 ng of RNA was injected per oocyte. Injected oocytes were kept for 72 h at 18°C in ND96 buffer with two daily buffer changes before being used for further experiments.
Drug transport assays were performed as previously described. Briefly, measurements of radiolabeled drug uptake were made over 1 h, unless otherwise specified. […] Where specified, one or more unlabeled drugs were also present at the indicated concentrations. […] The uptake assays were terminated by removing the oocytes from the reaction medium and washing them three times with 2 mL of ice-cold ND96 buffer. Each oocyte was transferred to a separate scintillation vial and lysed by the addition of 200 μL of a 5% SDS solution. The radioactivity in the sample was measured using a liquid scintillation analyser Tri-Carb 4910 TR (PerkinElmer). Water-injected oocytes were analyzed in parallel as a negative control. The buffer from each condition was measured in duplicate in parallel to each experiment to transform counts per minute into pmol of drug. Drug uptake attributable to PfCRT was determined by subtracting the background uptake from water-injected oocytes from that of PfCRT-expressing oocytes. In all cases, at least three independent experiments were performed on oocytes from different frogs, and for each condition in an experiment, measurements were made from 10 oocytes per treatment.

CCN(CC)CCCC(C)Nc1ccnc2cc(Cl)ccc12 (stereo not drawn) [CQ, chloroquine]
PfCRTDd2_G353V-mediated CQ uptake at 10 µM CQ (10 µM CQ, single replicates): 0.74 pmol oocyte-1 h-1 and 0.50 pmol oocyte-1 h-1 and 0.07 pmol oocyte-1 h-1
PfCRTDd2_G353V-mediated CQ uptake at 50 µM CQ (50 µM CQ, single replicates): 4.74 pmol oocyte-1 h-1 and 5.01 pmol oocyte-1 h-1 and 2.88 pmol oocyte-1 h-1 and 3.92 pmol oocyte-1 h-1 and 4.76 pmol oocyte-1 h-1
PfCRTDd2_G353V-mediated CQ uptake at 100 µM CQ (100 µM CQ, single replicates): 7.26 pmol oocyte-1 h-1 and 6.49 pmol oocyte-1 h-1 and 5.26 pmol oocyte-1 h-1
PfCRTDd2_G353V-mediated CQ uptake at 300 µM CQ (300 µM CQ, single replicates): 16.30 pmol oocyte-1 h-1 and 8.52 pmol oocyte-1 h-1 and 8.09 pmol oocyte-1 h-1
PfCRTDd2_G353V-mediated CQ uptake at 500 µM CQ (500 µM CQ, single replicates): 17.15 pmol oocyte-1 h-1 and 14.95 pmol oocyte-1 h-1 and 14.10 pmol oocyte-1 h-1
Vmax, maximal velocity of drug transport (Michaelis-Menten fit, 10-500 μM drug, pH 6): 23 ± 3 pmol oocyte^-1 h^-1

Clc1ccc2c(N3CCN(CCCN4CCN(c5ccnc6cc(Cl)ccc56)CC4)CC3)ccnc2c1 [PPQ, piperaquine]
PfCRTDd2_G353V-mediated PPQ uptake at 10 µM PPQ (10 µM PPQ, single replicates): 5.31 pmol oocyte-1 h-1 and 5.17 pmol oocyte-1 h-1 and 3.93 pmol oocyte-1 h-1
PfCRTDd2_G353V-mediated PPQ uptake at 50 µM PPQ (50 µM PPQ, single replicates): 29.38 pmol oocyte-1 h-1 and 45.38 pmol oocyte-1 h-1 and 21.36 pmol oocyte-1 h-1 and 40.00 pmol oocyte-1 h-1 and 56.34 pmol oocyte-1 h-1 and 56.46 pmol oocyte-1 h-1 and 95.52 pmol oocyte-1 h-1 and 62.83 pmol oocyte-1 h-1
PfCRTDd2_G353V-mediated PPQ uptake at 100 µM PPQ (100 µM PPQ, single replicates): 105.67 pmol oocyte-1 h-1 and 52.72 pmol oocyte-1 h-1 and 63.14 pmol oocyte-1 h-1
PfCRTDd2_G353V-mediated PPQ uptake at 300 µM PPQ (300 µM PPQ, single replicates): 116.72 pmol oocyte-1 h-1 and 65.87 pmol oocyte-1 h-1 and 109.27 pmol oocyte-1 h-1
PfCRTDd2_G353V-mediated PPQ uptake at 500 µM PPQ (500 µM PPQ, single replicates): 126.72 pmol oocyte-1 h-1 and 99.20 pmol oocyte-1 h-1 and 126.01 pmol oocyte-1 h-1
Km (Michaelis-Menten fit, 10-500 μM drug, pH 6, read-out: KM, Michaelis constant): 90 ± 20 µM
